Experimental data published in patent publication US20120269815A1, “NEUROTROPHINS AND USES THEREOF” (Regents of the University of Minnesota, priority 2008, published 2012).
No end group written: not given here.

How the values were obtained:
[1] = test system: primary culture hypothalamic neurons; assay: Activated-Caspase 3 expression in serum-deprived primary cultured hypothalamic neurons; type: cell-based, mouse; details: 48-hour serum deprivation; 50 nM TUF1[43-54] or 500 ng/ml anti-TUF1[43-54] IgG; preliminary qualitative analysis
Method: Gestational day 16.5 mouse embryos were collected from deeply anesthetized pregnant dam (i.p. injection of 10 mg/Kg Beuthanasia). Embryos were placed in HAM F12+10% Fetal Calf Serum (FCS)+1 mg/ml glucose. Whole brains were dissected and placed in a dish containing Phosphate Buffer Saline (PBS)+1 mg/ml glucose+10 mM HEPES. Hypothalami were dissected from embryonic brains and placed into a conical tube containing 2 ml HAM F12+10 mg/ml Glucose+10 mM HEPES. Cells were dissociated by pipetting and then centrifuged at 200×g for 5 minutes. Cells were suspended in culture medium (HAM F12+10% FCS+10 mg/ml glucose+10 mM HEPES+[…]) and plated at 200,000 cells/25 mm flask. Plated cells were incubated for four days in humidified incubator maintained at 37° C. and 5% CO2 (NuAire NU-8600, NuAire, Inc., Plymouth, Minn.).
To gain insight into the survival effect of TUF1[43-54] polypeptide, serum deprivation was used as a stressor. […] Cells were assessed for activated-Caspase 3 expression by immunocytochemistry after 48-hour incubation.
Cultured cells were rinsed with PBS (2×), fixed with 4% Paraformaldehyde (5 minutes) and permeabilized with PBS+0.1% Tween-20 (PBST). […] Excess antibody was removed by PBST and labeled cells were detected using IMMPACT DAB chromogen (Vector Laboratories, Inc., Burlingame, Calif.) per manufacturer's recommendation.

[2] = Food consumption after ICV TUF1 peptide infusion; type: in vivo; details: rat, ICV administration
Method: (§1) a) Intra-cerebroventricular (ICV) Cannulation Male Sprague-Dawley rats weighing 250-400 grams were anesthetized with ketamine (100 mg/kg) and xylazine (7 mg/kg) and placed in a stereotaxic device (David Kopf Instruments Corp., Tunjunga, Calif.) using atraumatic ear bars. An incision of the skin overlying the skull was made and anchor screws were inserted into the skull. Burr holes were drilled to allow the guide cannula to pass into the brain. The guide cannula (22-gauge, C313G; Plastics One, Roanoke, Va.) was placed at 0 mm posterior, 1.2 mm lateral and 3.5 mm ventral to bregma. The cannula was affixed using epoxy glue (Loctite 444; McMaster-Carr, Chicago, Ill.) followed by dental acrylic (Hygienic perm reline & repair resin, Type II, Class I; Henry Schein, Inc., Melville, N.Y.). The cannula was sealed and kept open by insertion of a ‘dummy’ cannula.
b) TUF1 Peptide Infusion 0 μg, 1 μg, or 10 μg TUF1 peptide diluted in artificial cerebrospinal fluid (aCSF, Harvard Apparatus, Holliston, Mass.) was injected into the brain through the in-dwelling cannulae immediately prior to behavioral measurement (described below). […]
Food intake, in grams, was measured by weighing food in the hopper daily for the two days prior to drug infusion and for the drug infusion days, and calculating the amount eaten by subtracting each day's food weight from that of the previous day.

[3] = Fear-potentiated startle after ICV TUF1 peptide infusion; type: in vivo, rat; details: adult male rats
Method: as §1, with “cannula. […]” for “cannula.”
(§2) For fear potentiated startle, shock sensitization, and prepulse inhibition testing, animals were trained and tested in four identical 7.5 cm×9 cm×17 cm stabilimeter devices. […] Shock intensity was measured with a 1-kΩ resistor across a differential channel of an oscilloscope in series with a 100-kΩ resistor connected between two floor bars in each cage. Current was defined as the RMS voltage across the resistor and calculated in mA as 0.707×0.5 ×peak-to-peak voltage. […]

[4] = Shock sensitization of startle after ICV TUF1 peptide infusion; type: in vivo, rat; details: adult male rats, 1.0 μg or 10 μg ICV
Method: as §1, with “cannula. […]” for “cannula.”
as §2

[5] = Prepulse inhibition of startle after ICV TUF1 peptide infusion; type: in vivo, rat; details: adult male rats, 1.0 μg or 10 μg ICV
Method: as §1, with “cannula. […]” for “cannula.”
as §2

AYKSYVRALPLL [TUF1[43-54]]
cell death (activated-Caspase 3) following serum-deprivation [1]: fewer cell death | food consumption [2]: influences food consumption | shock reactivity ([3]; 1.0 μg or 10 μg ICV): No effect | fear potentiated startle ([3]; 1.0 μg or 10 μg via lateral ventricle cannulae, vs control subjects): reduced fear potentiated startle | shock sensitization [4]: No effect | pre-pulse inhibition [5]: No effect
